Test results as given in patent publication US8497303B2, “Method to enhance aqueous solubility of poorly soluble actives” (Dow Global Technologies LLC, priority 2008, dated 2013).
Where two headings read alike, the source gives them in different places.

Tests used:
[1] = for Percent Loading Using MPEG 350: saturated solution, HPLC
Experimental: The solution is then stirred with a vortex mixer for approximately 1 to 2 minutes, then shaken with an automated shaker for about 45 minutes. […] The sample is then left overnight in a water bath at about 29° C.
The solution is stirred with a vortex mixer for approximately 1 to 2 minutes, then shaken with an automated shaker for about 45 minutes. […] The sample is left overnight in a water bath at about 30° C.
The solutions are then filtered through a syringe filter and the concentrations are characterized by HPLC. The percent water in the MPEG solutions varies from 0 to 20 percent.
The solution is then filtered through a syringe filter and the concentration is characterized by HPLC. The percent water in the MPEG solutions varies from 0 to 20 percent.

[2] = for Percent Loading Using PEG 400: saturated solution, HPLC
Experimental: For comparison, solutions of PEG 400 and water are prepared in an analogous manner to those including the MPEG 350.
For comparison, solutions of PEG 400 and water are prepared in an analogous manner.

Structure (SMILES) | Maximum solubility for MPEG 350:water blends greater than that for PEG 400:water blends [1] [%] | Percent Loading Using MPEG 350 ([1]; 0 percent water in MPEG 350) [%] | Percent Loading Using MPEG 350 ([1]; 5 percent water in MPEG 350) [%] | Percent Loading Using MPEG 350 ([1]; 10 percent water in MPEG 350) [%] | Percent Loading Using MPEG 350 ([1]; 15 percent water in MPEG 350) [%] | Percent Loading Using MPEG 350 ([1]; 20 percent water in MPEG 350) [%] | Loading with MPEG:water blends relative to PEG:water blends ([1]; when water is added) | Amount solubilized by neat PEG 400 solution relative to neat MPEG 350 solution [2] | Percent Loading Using PEG 400 ([2]; 0 percent water in PEG 400) [%] | Percent Loading Using PEG 400 ([2]; 5 percent water in PEG 400) [%] | Percent Loading Using PEG 400 ([2]; 10 percent water in PEG 400) [%] | Percent Loading Using PEG 400 ([2]; 15 percent water in PEG 400) [%] | Percent Loading Using PEG 400 ([2]; 20 percent water in PEG 400) [%] | Solubility (maximum loading) in PEG 400 [2] [weight percent] | Increase in loading compared to the MPEG 350 solution containing no water ([1]; 95:5 MPEG 350:water vs MPEG 350 without water) [%] | More loading with 95:5 MPEG 350:water blend compared to the best PEG 400:water blend ([1]; 95:5 MPEG 350:water vs PEG 400:water blend with highest loading) [weight percent] | Appearance of solution in MPEG 350 ([1]; approximately 15.4 weight percent solution, left overnight in water bath at about 30° C.) | Amount of drug loading in MPEG 350 solution higher than in PEG 400 solution ([1]; neat MPEG 350 vs neat PEG 400)
CC(=O)Nc1ccc(O)cc1 [Acetaminophen] | 10.6 | 16.20 | 21.93 | 23.62 | 24.47 | 24.01 | higher loading | slightly more | 16.82 | 20.62 | 21.78 | 22.12 | 21.59 | – | – | – | – | –
CC(C)Cc1ccc(C(C)C(=O)O)cc1 (centres unmarked) [Ibuprofen, ibuprofen] | – | – | – | – | – | – | – | – | 21.60 | 24.31 | 21.48 | 17.24 | 11.56 | 21.6±0.8 | – | – | – | –
COc1ccc2cc([C@H](C)C(=O)O)ccc2c1 [Naproxen, naproxen] | – | – | – | – | – | – | – | – | – | – | – | – | – | – | 24.4 | 29.2 | some suspended material | approximately 13.6%
